Results on one compound are retold here after ChEMBL document CHEMBL3351303, “Discovery of Imigliptin, a Novel Selective DPP-4 Inhibitor for the Treatment of Type 2 Diabetes” (ACS Med Chem Lett, 2014).

Where only a bound is given, the exact number is not on record here.

Usually Cmax stands for the peak of the concentration-time curve. Usually bioavailability stands for the share of a dose that reaches the circulation, judged against a reference dose that is usually intravenous. Lower therefore signals little systemic uptake. In general, half-life refers to how long it takes for the measured level to halve. Read a high half-life as slow decline. In general, AUC(0-t) refers to the area under the concentration-time curve up to a stated or last time point. Read a low AUC(0-t) as low exposure. As a reminder, the IC50 is the concentration that gives 50% inhibition. Broadly, the clearance is a measure of how efficiently the substance is removed, as volume per time. The low end stands for inefficient removal, the high end for efficient removal.

The nature of data set [1]: Cmax in rat at 8 mg/kg, po. The conditions noted are these: in vivo. It counts as ADME, organism-based. Set-up: dose 8 mg/kg, route oral.
Data set [2] can be described thus: Oral bioavailability in rat at 8 mg/kg. The data set is classed as ADME, organism-based. Particulars: in vivo.
Data set [3] in a line: Half life in rat at 4 mg/kg, iv. Set-up: dose 4 mg/kg, route intravenous. It counts as ADME, organism-based. The conditions noted are these: in vivo.
The nature of data set [4]: Half life in rat at 8 mg/kg, po. It counts as ADME, organism-based. Set-up: dose 8 mg/kg, route oral. The conditions noted are these: in vivo.
A short description of data set [5]: AUClast in rat at 8 mg/kg, po. It counts as ADME, organism-based. Set-up: time 0 - last, dose 8 mg/kg, route oral. The conditions noted are these: plasma.
Another data set addresses Dipeptidyl peptidase 9 (Homo sapiens, UniProt Q86TI2). Briefly: Inhibition of human recombinant DPP9 pre-incubated with compound for 15 mins before substrate addition by luminescence assay.
Data set [6] can be described thus: Volume of distribution at steady state in rat at 4 mg/kg, iv. It counts as ADME, organism-based. Further details: dose 4 mg/kg, route intravenous. The conditions noted are these: in vivo, read-out: Vdss.
Data set [7] is described as follows: Clearance in rat at 4 mg/kg, iv. The data set is classed as ADME, organism-based. Particulars: in vivo. Set-up: dose 4 mg/kg, route intravenous.
The target in a further data set is Dipeptidyl peptidase 8 (Homo sapiens, UniProt Q6V1X1). Briefly: Inhibition of human recombinant DPP8 pre-incubated with compound for 15 mins before substrate addition by luminescence assay.
Dipeptidyl peptidase 8, sequence (Q6V1X1 whole entry): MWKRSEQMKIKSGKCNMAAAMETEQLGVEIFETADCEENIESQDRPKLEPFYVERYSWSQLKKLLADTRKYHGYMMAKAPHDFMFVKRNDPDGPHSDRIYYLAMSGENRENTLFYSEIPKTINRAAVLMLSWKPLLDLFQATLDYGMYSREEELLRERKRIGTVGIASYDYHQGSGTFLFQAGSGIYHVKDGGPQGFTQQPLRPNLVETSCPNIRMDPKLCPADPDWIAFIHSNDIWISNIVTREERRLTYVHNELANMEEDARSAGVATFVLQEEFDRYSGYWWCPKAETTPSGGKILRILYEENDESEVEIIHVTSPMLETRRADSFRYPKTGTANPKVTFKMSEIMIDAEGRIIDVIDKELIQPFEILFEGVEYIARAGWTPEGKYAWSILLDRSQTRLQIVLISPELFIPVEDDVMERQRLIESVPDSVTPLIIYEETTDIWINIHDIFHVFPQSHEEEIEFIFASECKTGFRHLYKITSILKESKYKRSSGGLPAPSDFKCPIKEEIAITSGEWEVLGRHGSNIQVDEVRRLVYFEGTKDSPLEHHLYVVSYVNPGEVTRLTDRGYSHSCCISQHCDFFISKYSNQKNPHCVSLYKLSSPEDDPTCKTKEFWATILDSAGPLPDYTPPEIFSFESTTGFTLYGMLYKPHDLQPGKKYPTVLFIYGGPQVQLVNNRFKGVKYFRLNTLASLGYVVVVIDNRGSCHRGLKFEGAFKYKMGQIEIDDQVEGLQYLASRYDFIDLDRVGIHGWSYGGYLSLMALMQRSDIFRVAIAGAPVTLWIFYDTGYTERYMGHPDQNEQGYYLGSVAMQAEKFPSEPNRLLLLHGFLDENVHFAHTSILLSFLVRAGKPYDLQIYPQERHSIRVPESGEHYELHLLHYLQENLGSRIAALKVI

Dipeptidyl peptidase 9, sequence (Q86TI2 whole entry): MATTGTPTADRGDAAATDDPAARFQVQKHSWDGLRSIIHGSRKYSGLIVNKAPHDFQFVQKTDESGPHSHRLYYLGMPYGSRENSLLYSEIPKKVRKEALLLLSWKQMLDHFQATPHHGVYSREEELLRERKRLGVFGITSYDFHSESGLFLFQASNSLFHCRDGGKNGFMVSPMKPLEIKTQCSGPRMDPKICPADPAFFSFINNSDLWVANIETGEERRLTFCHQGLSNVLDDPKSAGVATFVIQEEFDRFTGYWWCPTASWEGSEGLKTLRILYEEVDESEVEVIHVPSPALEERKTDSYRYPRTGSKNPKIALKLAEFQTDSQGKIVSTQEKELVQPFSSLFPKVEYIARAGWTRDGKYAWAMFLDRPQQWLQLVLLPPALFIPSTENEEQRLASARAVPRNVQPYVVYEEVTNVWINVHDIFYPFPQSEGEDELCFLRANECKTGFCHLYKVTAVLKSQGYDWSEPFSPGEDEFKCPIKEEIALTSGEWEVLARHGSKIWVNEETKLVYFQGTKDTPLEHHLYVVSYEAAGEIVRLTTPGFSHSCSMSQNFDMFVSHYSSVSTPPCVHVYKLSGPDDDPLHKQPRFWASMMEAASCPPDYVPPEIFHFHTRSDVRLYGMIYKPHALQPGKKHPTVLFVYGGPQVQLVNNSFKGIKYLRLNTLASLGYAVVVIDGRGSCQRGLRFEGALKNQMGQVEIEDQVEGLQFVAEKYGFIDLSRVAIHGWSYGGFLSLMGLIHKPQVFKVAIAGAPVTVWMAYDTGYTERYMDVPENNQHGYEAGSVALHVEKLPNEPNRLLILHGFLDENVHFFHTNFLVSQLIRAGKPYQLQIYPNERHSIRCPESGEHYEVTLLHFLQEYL

With `Cn1c(=O)n(Cc2ccccc2C#N)c2c(N3CCC[C@@H](N)C3)ncnc21`, in [1], the maximum concentration (Cmax) was 86 ng/mL. Also, the bioavailability in data set [2] was 12%. For the same compound, the results for the half-life in [3] and in data set [4] were 0.8 h and 1.5 h, respectively. The AUC(0-t) in [5] amounted to 249 ng·h/mL. For the same compound, the IC50 on Dipeptidyl peptidase 9 and on Dipeptidyl peptidase 8 was greater than 100 µM throughout. Further, the Vd in data set [6] is 2.78 L/kg. The same compound showed a clearance in data set [7] of 61.2 mL/min/kg.
